From ChEMBL document CHEMBL6103552, “Identification of peptide-based hepatitis B virus capsid inhibitors based on the viral core protein” (Bioorg Med Chem Lett, 2025) come the findings set out here.

This test addresses Core antigen (Hepatitis B virus) (UniProt Q03732). Description: Inhibition of Hepatitis B virus capsid formation at 100 uM treated during cell-free wild type HBV Cp synthesis using wheat germ lysates and HBV Cp RNA by Native capsid assay based western blot analysis. The class given is subcellular. On the technique in general: In western blotting, separated proteins are transferred to a membrane and probed.

Active and inactive are the calls of the source. The rule behind the calls is not given here. Residues, ends and D or L forms follow the SMILES beside them.

Sequence of Core antigen (Hepatitis B virus) (Q03732 as listed by the source): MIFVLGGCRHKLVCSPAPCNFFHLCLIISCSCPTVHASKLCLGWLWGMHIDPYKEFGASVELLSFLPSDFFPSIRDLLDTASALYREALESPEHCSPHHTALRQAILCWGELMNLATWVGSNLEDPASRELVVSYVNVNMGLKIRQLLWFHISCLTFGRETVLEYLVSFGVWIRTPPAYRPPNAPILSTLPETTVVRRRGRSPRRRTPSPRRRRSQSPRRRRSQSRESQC

In the case of `C[C@@H](O)[C@H](NC(=O)[C@H](CCCNC(=N)N)NC(=O)[C@H](CCCNC(=N)N)NC(=O)[C@H](CCCNC(=N)N)NC(=O)[C@@H]1CCCN1C(=O)[C@H](CO)NC(=O)[C@H](CCCNC(=N)N)NC(=O)CNC(=O)[C@H](CCCNC(=N)N)NC(=O)[C@@H](N)CCCNC(=N)N)C(=O)N1CCC[C@H]1C(=O)N[C@@H](CO)C(=O)N1CCC[C@H]1C(=O)N[C@@H](CCCNC(=N)N)C(=O)N[C@@H](CCCNC(=N)N)C(N)=O` (H-RRGRSPRRRTPSPRR-NH2), the inhibition entry was “inactive”.
For `CC[C@H](C)[C@H](NC(=O)[C@H](Cc1c[nH]cn1)NC(=O)[C@H](Cc1ccccc1)NC(=O)[C@H](Cc1c[nH]c2ccccc12)NC(=O)[C@@H](N)CC(C)C)C(=O)N[C@@H](CO)C(=O)N[C@@H](CS)C(=O)N[C@@H](CC(C)C)C(=O)N[C@H](C(=O)N[C@@H](Cc1ccccc1)C(=O)NCC(=O)N[C@@H](CCCNC(=N)N)C(=O)N[C@@H](CCC(=O)O)C(=O)N[C@H](C(=O)N[C@H](C(N)=O)C(C)C)[C@@H](C)O)[C@@H](C)O` (H-LWFHISCLTFGRETV-NH2) the value was “inactive”.
The value for `CSCC[C@H](NC(C)=O)C(=O)N[C@@H](CC(N)=O)C(=O)N[C@@H](CC(C)C)C(=O)N[C@@H](C)C(=O)N[C@H](C(=O)N[C@@H](Cc1c[nH]c2ccccc12)C(=O)N[C@H](C(=O)NCC(=O)N[C@@H](CO)C(=O)N[C@@H](CC(N)=O)C(=O)N[C@@H](CC(C)C)C(=O)N[C@@H](CCC(=O)O)C(=O)N[C@@H](CC(=O)O)C(=O)N1CCC[C@H]1C(=O)N[C@@H](C)C(N)=O)C(C)C)[C@@H](C)O` was “inactive”; that for `CSCC[C@H](NC(=O)[C@H](CC(N)=O)NC(=O)[C@@H](NC(=O)[C@H](CC(N)=O)NC(=O)[C@@H](NC(=O)[C@H](Cc1ccc(O)cc1)NC(=O)[C@H](CO)NC(=O)[C@@H](NC(=O)[C@@H](NC(=O)[C@H](CC(C)C)NC(=O)[C@H](CCC(=O)O)NC(=O)[C@H](CCCNC(=N)N)NC(=O)[C@H](CO)NC(C)=O)C(C)C)C(C)C)C(C)C)C(C)C)C(=O)NCC(=O)N[C@@H](CC(C)C)C(N)=O` was “inactive”; that for `CC(=O)N[C@@H](CO)C(=O)N[C@H](C(=O)N[C@@H](CC(C)C)C(=O)N1CCC[C@H]1C(=O)N[C@@H](CCC(=O)O)C(=O)N[C@H](C(=O)N[C@H](C(=O)N[C@H](C(=O)N[C@H](C(=O)N[C@@H](CCCNC(=N)N)C(=O)N[C@@H](CCCNC(=N)N)C(=O)N[C@@H](CCCNC(=N)N)C(=O)NCC(=O)N[C@@H](CCCNC(=N)N)C(=O)N[C@@H](CO)C(N)=O)C(C)C)C(C)C)[C@@H](C)O)[C@@H](C)O)[C@@H](C)O` was “inactive”.
The value for `CC(=O)N[C@@H](CCCNC(=N)N)C(=O)N[C@@H](CCCNC(=N)N)C(=O)NCC(=O)N[C@@H](CCCNC(=N)N)C(=O)N[C@@H](CO)C(=O)N1CCC[C@H]1C(=O)N[C@@H](CCCNC(=N)N)C(=O)N[C@@H](CCCNC(=N)N)C(=O)N[C@@H](CCCNC(=N)N)C(=O)N[C@H](C(=O)N1CCC[C@H]1C(=O)N[C@@H](CO)C(=O)N1CCC[C@H]1C(=O)N[C@@H](CCCNC(=N)N)C(=O)N[C@@H](CCCNC(=N)N)C(N)=O)[C@@H](C)O` (Ac-RRGRSPRRRTPSPRR-NH2) was “inactive”.
`CSCC[C@H](NC(=O)[C@H](CC(N)=O)NC(=O)[C@@H](NC(=O)[C@H](CC(N)=O)NC(=O)[C@@H](NC(=O)[C@H](Cc1ccc(O)cc1)NC(=O)[C@H](CO)NC(=O)[C@@H](NC(=O)[C@@H](NC(=O)[C@H](CC(C)C)NC(=O)[C@H](CCC(=O)O)NC(=O)[C@H](CCCNC(=N)N)NC(=O)[C@@H](N)CO)C(C)C)C(C)C)C(C)C)C(C)C)C(=O)NCC(=O)N[C@@H](CC(C)C)C(N)=O`: the inhibition entry is “inactive”.
The value for `CC[C@H](C)[C@H](NC(=O)[C@H](C)NC(=O)[C@H](CCC(N)=O)NC(=O)[C@@H]1CCCN1C(=O)[C@H](CC(C)C)NC(=O)[C@H](C)NC(=O)[C@@H](NC(=O)[C@H](Cc1c[nH]cn1)NC(=O)[C@H](Cc1c[nH]cn1)NC(=O)[C@@H]1CCCN1C(=O)[C@H](CO)NC(=O)[C@H](CS)NC(=O)[C@H](Cc1c[nH]cn1)NC(=O)[C@H](CCC(=O)O)NC(C)=O)[C@@H](C)O)C(=O)N[C@@H](CC(C)C)C(N)=O` (Ac-EHCSPHHTALPQAIL-NH2) was “inactive”; that for `CC[C@H](C)[C@H](NC(=O)[C@@H](N)CO)C(=O)N[C@@H](CCCNC(=N)N)C(=O)N[C@@H](CC(=O)O)C(=O)N[C@@H](CC(C)C)C(=O)N[C@@H](CC(C)C)C(=O)N[C@@H](CC(=O)O)C(=O)N[C@H](C(=O)N[C@@H](C)C(=O)N[C@@H](CO)C(=O)N[C@@H](C)C(=O)N[C@@H](CC(C)C)C(=O)N[C@@H](Cc1ccc(O)cc1)C(=O)N[C@@H](CCCNC(=N)N)C(=O)N[C@@H](CCC(=O)O)C(N)=O)[C@@H](C)O` was “inactive”; that for `CC[C@H](C)[C@H](NC(=O)[C@H](CO)NC(C)=O)C(=O)N[C@@H](CCCNC(=N)N)C(=O)N[C@@H](CC(=O)O)C(=O)N[C@@H](CC(C)C)C(=O)N[C@@H](CC(C)C)C(=O)N[C@@H](CC(=O)O)C(=O)N[C@H](C(=O)N[C@@H](C)C(=O)N[C@@H](CO)C(=O)N[C@@H](C)C(=O)N[C@@H](CC(C)C)C(=O)N[C@@H](Cc1ccc(O)cc1)C(=O)N[C@@H](CCCNC(=N)N)C(=O)N[C@@H](CCC(=O)O)C(N)=O)[C@@H](C)O` was “inactive”.
For `CC(=O)N[C@@H](CCCNC(=N)N)C(=O)N[C@@H](CCCNC(=N)N)C(=O)N[C@@H](CO)C(=O)N[C@@H](CCC(N)=O)C(=O)N[C@@H](CO)C(=O)N1CCC[C@H]1C(=O)N[C@@H](CCCNC(=N)N)C(=O)N[C@@H](CCCNC(=N)N)C(=O)N[C@@H](CCCNC(=N)N)C(=O)N[C@@H](CCCNC(=N)N)C(=O)N[C@@H](CO)C(=O)N[C@@H](CCC(N)=O)C(=O)N[C@@H](CO)C(=O)N[C@@H](CCCNC(=N)N)C(=O)N[C@@H](CCC(=O)O)C(N)=O` (Ac-RRSQSPRRRRSQSRE-NH2) the value was “inactive”.
Take `CSCC[C@H](NC(=O)[C@H](CC(N)=O)NC(=O)[C@@H](NC(=O)[C@H](CC(N)=O)NC(=O)[C@@H](NC(=O)[C@H](Cc1ccc(O)cc1)NC(=O)[C@H](CO)NC(=O)[C@@H](N)C(C)C)C(C)C)C(C)C)C(=O)NCC(=O)N[C@@H](CC(C)C)C(=O)N[C@@H](CCCCN)C(=O)N[C@@H](Cc1ccccc1)C(=O)N[C@@H](CCCNC(=N)N)C(=O)N[C@@H](CCC(N)=O)C(=O)N[C@@H](CC(C)C)C(N)=O` (H-VSYVNVNMGLKFRQL-NH2): the inhibition entry is “inactive”.
For `CC(=O)NCC(=O)N[C@@H](CCCNC(=N)N)C(=O)N[C@@H](CCC(=O)O)C(=O)N[C@H](C(=O)N[C@H](C(=O)N[C@@H](CC(C)C)C(=O)N[C@@H](CCC(=O)O)C(=O)N[C@@H](Cc1ccc(O)cc1)C(=O)N[C@@H](CC(C)C)C(=O)N[C@H](C(=O)N[C@@H](CO)C(=O)N[C@@H](Cc1ccccc1)C(=O)NCC(=O)N[C@H](C(=O)N[C@@H](Cc1c[nH]c2ccccc12)C(N)=O)C(C)C)C(C)C)C(C)C)[C@@H](C)O` (Ac-GRETVLEYLVSFGVW-NH2), the inhibition entry is “inactive”.
In the case of `CC[C@H](C)[C@H](NC(=O)[C@@H]1CCCN1C(=O)[C@H](C)NC(=O)[C@H](CC(N)=O)NC(=O)[C@@H]1CCCN1C(=O)[C@@H]1CCCN1C(=O)[C@H](CCCNC(=N)N)NC(=O)[C@H](Cc1ccc(O)cc1)NC(=O)[C@H](C)N)C(=O)N[C@@H](CC(C)C)C(=O)N[C@@H](CO)C(=O)N[C@H](C(=O)N[C@@H](CC(C)C)C(=O)N1CCC[C@H]1C(=O)N[C@@H](CCC(=O)O)C(N)=O)[C@@H](C)O` (H-AYRPPNAPILSTLPE-NH2), the inhibition entry was “inactive”.
